Source: patent US12070464B2, “Methods of treating myeloproliferative disorders” (priority 2019, dated 2024)

Experiments:
[1] = system: patients with refractory or intolerant advanced myelofibrosis; assay: Phase 2 study, Arms 1 and 2 together (monotherapy or add-on to ruxolitinib); assay type: in vivo, human
Description: A Phase 2 study of Compound 1 in subjects with myelofibrosis (MF) was conducted. Three treatment arms were studied:
(§1) Arm 1=monotherapy with Compound 1 in patients (pts) who are no longer on Rux and are with refractory, intolerant, or ineligible. In this arm patients were further stratified based on transfusion dependence status [transfusion dependent (TD), defined as an average of >2 units per month over 12 wks, or non-TD cohorts]. Primary endpoint: spleen volume response (SVR) for non-TD cohorts or TD to transfusion independence (TI, no transfusion for consecutive 12 wks) conversion for TD cohorts; secondary endpoints: change in total symptom score (TSS) per MFSAF v4.0, patient global impression of change (PGIC), safety and PK; additional endpoints: changes in proinflammatory Ck levels, BM morphology and mutant allele burden.
as §1, with “2=combination add-on treatment of” for “1=monotherapy with”, “already being administered Rux.” for “no longer on Rux and are with refractory, intolerant, or ineligible.”, “cohorts]. The starting dose of Compound 1 was 125 mg daily on days 1-14 of a 21-day cycle in both arms.” for “cohorts].”
The starting dose of Compound 1 was 125 mg given orally, once daily for 2 weeks on/1 week off in a 21-day dosing cycle. Two separate time points for data analysis occurred for at least Arms 1 and 2 and are discussed below: one at approximately 12 weeks of treatment (first assessment of spleen volume by MRI or CT and every 12 weeks thereafter) and another at approximately 24 weeks of treatment (first assessment of bone marrow biopsy and every 24 weeks thereafter). Patients were added to the study following the first time point.
Demographics and results are as follows: At baseline, median age: 69 years (41-88), gender: 28 (58%) male, ECOG <1: 45 (94%) patients, primary MF: 33 (69%) patients, DIPSS score high: 10 (21%) patients, median platelet: 199 x 1091 (77-895), 34 (71%) patients with Hgb <10 g/dL, median spleen volume: 2183 cc (123-3909), median TSS: 17.6 (1.4-56), 46 (96%) patients had ≥1 JAK2/MPL/CALR mutations, and 34 (71%) patients had HMR (high molecular risk) mutations. 33 (69%) patients on treatment for ≥12 wks, 4 on treatment for >18 months.

[2] = system: patients with refractory or intolerant myelofibrosis no longer on Rux; assay: Phase 2 study, Arm 1 (Compound 1 monotherapy); assay type: in vivo, human; conditions: for average spleen volume reduction: 24 weeks, FIG. 13A
Description: A Phase 2 study of Compound 1 in subjects with myelofibrosis (MF) was conducted. Three treatment arms were studied: Arm 1=monotherapy with Compound 1 in patients (pts) who are no longer on Rux and are with refractory, intolerant, or ineligible. In this arm patients were further stratified based on transfusion dependence status [transfusion dependent (TD), defined as an average of >2 units per month over 12 wks, or non-TD cohorts]. Primary endpoint: spleen volume response (SVR) for non-TD cohorts or TD to transfusion independence (TI, no transfusion for consecutive 12 wks) conversion for TD cohorts; secondary endpoints: change in total symptom score (TSS) per […]4.0, patient global impression of change (PGIC), safety and PK; additional endpoints: changes in proinflammatory Ck levels, BM morphology and mutant allele burden. The starting dose of Compound 1 was 125 mg given orally, once daily for 2 weeks on/1 week off in a 21-day dosing cycle. Two separate time points for data analysis occurred for at least Arms 1 and 2 and are discussed below: one at approximately 12 weeks of treatment (first assessment of spleen volume by MRI or CT and every 12 weeks thereafter) and another at approximately 24 weeks of treatment (first assessment of bone marrow biopsy and every 24 weeks thereafter). Patients were added to the study following the first time point. Patients were added to the study following the first data cut and treatment was continued for approximately 25.9 weeks (median, range: 0.4, 116.6).

[3] = Time Point 2, Arms 1 and 2, FIG. 14

Cc1noc2c1-c1ccccc1C(c1ccc(Cl)cc1)=N[C@H]2CC(N)=O [Compound 1, 2-((4S)-6-(4-chlorophenyl)-1-methyl-4H-benzo[c]isoxazolo[4,5-e]azepin-4-yl)acetamide]
most common (≥20%) treatment-emergent adverse events of any Gr ([1]; Time Point 1): diarrhea, nausea, cough and upper respiratory tract infection | ≥3 Gr TEAE anemia ([1]; Time Point 1): 8.3% | patients with improvement in BM fibrosis and/or reticulin by ≥1 Gr ([1]; Time Point 1, 7 of 12 evaluable patients, as early as 6-months): 58% | patients with ≥50% TSS improvement ([1]; Time Point 1, 11 patients): 39% | patients reporting much or very much improved PGIC scores ([1]; Time Point 1, 21 patients): 64% | patients with TSS improvement ([1]; Time Point 1, 26 of 28 patients, FIG. 8 panel B): 93% | patients with PGIC improvement score ([1]; Time Point 1, 28 of 33 patients): 85% | patients with spleen volume reduction ([1]; Time Point 1, 29 of 31 patients, FIG. 8 panel A): 94% | ≥3 Gr TEAE thrombocytopenia ([1]; Time Point 1, asymptomatic, non-cumulative and generally reversible): 8.3% | subjects with bone marrow fibrosis improvement [1, 3]: about 38% | subjects with bone marrow fibrosis improvement as early as 6-months [1, 3]: about 32% | tolerability ([1]; alone or add-on to ruxolitinib): generally well-tolerated | patients with increase in hemoglobin by 1.5 mg/dL post-baseline ([2]; Time Point 1, monotherapy, 4 of 8): 50% | average spleen volume reduction ([2]; Time Point 2, TD patients (Cohort 1A)): about −3.2% | average spleen volume reduction ([2]; Time Point 2, non-TD patients (Cohort 1B)): about −26% | patients with improved PGIC ([2]; Time Point 2, TD patients): about 50% | patients with improvement in bone marrow fibrosis ([2]; Time Point 2, TD patients): about 25% | patients with improved PGIC ([2]; Time Point 2, non-TD patients): 100% | patients with improvement in disease symptoms per TSS ([2]; Time Point 2, non-TD patients): About 60%
